Here are results for 20 molecules from ChEMBL document CHEMBL1201862, “PubChem BioAssay data set” (2004).

Experiment [1] concerns the target T1, Zinc finger protein mex-5 (Caenorhabditis elegans, UniProt Q9XUB2).
T1 sequence (Q9XUB2 whole entry): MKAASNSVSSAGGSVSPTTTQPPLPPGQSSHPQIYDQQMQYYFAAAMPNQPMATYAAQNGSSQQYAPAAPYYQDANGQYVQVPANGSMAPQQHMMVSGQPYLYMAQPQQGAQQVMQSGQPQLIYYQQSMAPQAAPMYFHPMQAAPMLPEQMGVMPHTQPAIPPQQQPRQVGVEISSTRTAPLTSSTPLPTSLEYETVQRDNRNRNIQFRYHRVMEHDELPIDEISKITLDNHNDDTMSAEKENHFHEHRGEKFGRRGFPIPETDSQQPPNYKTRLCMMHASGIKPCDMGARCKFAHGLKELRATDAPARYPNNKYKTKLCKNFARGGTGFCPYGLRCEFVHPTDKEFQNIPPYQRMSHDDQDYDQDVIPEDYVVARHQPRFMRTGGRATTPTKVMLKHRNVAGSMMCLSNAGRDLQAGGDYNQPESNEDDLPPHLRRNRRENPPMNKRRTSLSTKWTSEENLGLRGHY
Kind of experiment: potency of MEX-5 RNA-binding blockers – biochemical, C. elegans, fluorescence polarization, dose response (AID 1960). In general terms: Fluorescence polarisation rises when a labelled molecule tumbles more slowly, as on binding a larger partner.

Experiment [2] deals with T2, RNA-binding protein pos-1 (Caenorhabditis elegans, UniProt G5EF15).
T2 sequence (G5EF15 whole entry): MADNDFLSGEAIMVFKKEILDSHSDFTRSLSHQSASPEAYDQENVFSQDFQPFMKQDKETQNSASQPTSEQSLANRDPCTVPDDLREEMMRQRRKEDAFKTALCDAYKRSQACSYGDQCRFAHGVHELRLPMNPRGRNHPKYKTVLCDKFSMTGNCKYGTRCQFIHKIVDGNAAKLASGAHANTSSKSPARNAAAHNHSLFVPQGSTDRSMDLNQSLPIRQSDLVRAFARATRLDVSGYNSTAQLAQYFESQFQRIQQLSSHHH
The experiment in a line: disruptors of C. elegans POS-1 RNA interaction – biochemical, fluorescence polarization, dose response (AID 1964).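 Note: purified POS-1 fused to maltose binding protein made in E. coli; potency of compounds blocking POS-1 binding to fluorescent RNA.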

The target in experiment [3] is Phospholipase A2 (Homo sapiens, UniProt P04054). It is filed as functional.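 Note: confirmatory dose-response counterscreen on phospholipase A2, testing hits that came from an ultra-high-throughput screen for ATG4B inhibitors.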
Experiment [4] addresses T3, Cysteine protease ATG4B (Homo sapiens, UniProt Q9Y4P1).
T3 sequence (Q9Y4P1 whole entry): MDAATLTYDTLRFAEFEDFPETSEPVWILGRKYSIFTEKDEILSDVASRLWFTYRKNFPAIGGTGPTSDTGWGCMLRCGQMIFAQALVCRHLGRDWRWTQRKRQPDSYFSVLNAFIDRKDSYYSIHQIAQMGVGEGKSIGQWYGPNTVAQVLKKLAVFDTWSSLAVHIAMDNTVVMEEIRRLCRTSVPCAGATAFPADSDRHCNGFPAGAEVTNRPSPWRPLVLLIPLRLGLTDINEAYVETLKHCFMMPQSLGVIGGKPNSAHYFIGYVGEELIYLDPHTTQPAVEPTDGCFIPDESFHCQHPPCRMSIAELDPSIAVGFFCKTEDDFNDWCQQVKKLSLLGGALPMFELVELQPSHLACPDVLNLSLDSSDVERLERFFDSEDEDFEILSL
It counts as functional.

Experiment [5] in a line: Trypanosoma cruzi growth suppression in host cells – NIH3T3 host cells, beta-gal luminescence, confirmation (AID 2044).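 Note: intracellular parasites grown in NIH/3T3 mouse fibroblasts as host cells; luminescent beta-galactosidase reporter signal from transgenic T. cruzi replicating inside host cells; inhibitors lower the luminescence signal.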 It counts as functional, cell-based.
The nature of experiment [6]: NIH3T3 cell viability loss – ATP luminescence, mouse fibroblasts, counter-screen, dose response (AID 2010).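 Note: cells exposed to compound for about 90 hours before reading.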 It is filed as functional, cell-based.
Experiment [7] is described as follows: viability of uninfected HEp-2 cells – cell-based, HTS, cytotoxicity control for RSV inhibitor project, dose response (AID 2410). It counts as functional. Particulars: human respiratory syncytial virus.
Experiment [8] is described as follows: cells.
Experiment [9] deals with DNA dC->dU-editing enzyme APOBEC-3G (Homo sapiens, UniProt Q9HC16). Kind of experiment: Dose Response confirmation of small molecule APOBEC3G DNA Deaminase Inhibitors via a fluorescence-based single-stranded DNA deaminase assay. [Related pubchem assays (depositor defined):AID493012, AID493028]. It counts as functional.
Experiment [10] addresses Glyceraldehyde-3-phosphate dehydrogenase (Homo sapiens, UniProt P04406).
Experiment [11] concerns the target T4, Alkaline phosphatase, tissue-nonspecific isozyme (Homo sapiens, UniProt P05186).
T4 sequence (P05186 whole entry): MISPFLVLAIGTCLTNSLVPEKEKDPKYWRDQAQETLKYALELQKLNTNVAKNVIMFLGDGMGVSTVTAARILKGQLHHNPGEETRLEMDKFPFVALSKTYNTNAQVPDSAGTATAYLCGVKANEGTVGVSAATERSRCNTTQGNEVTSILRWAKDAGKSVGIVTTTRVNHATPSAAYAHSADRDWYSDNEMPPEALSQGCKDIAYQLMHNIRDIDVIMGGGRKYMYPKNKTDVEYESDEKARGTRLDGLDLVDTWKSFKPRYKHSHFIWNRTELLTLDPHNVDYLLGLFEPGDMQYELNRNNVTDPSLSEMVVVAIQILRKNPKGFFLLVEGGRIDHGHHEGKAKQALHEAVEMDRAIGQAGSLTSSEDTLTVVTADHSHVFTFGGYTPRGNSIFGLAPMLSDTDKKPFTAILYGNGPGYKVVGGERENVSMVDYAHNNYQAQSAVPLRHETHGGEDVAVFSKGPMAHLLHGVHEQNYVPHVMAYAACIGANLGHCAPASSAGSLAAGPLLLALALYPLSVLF
The experiment in a line: potency against alkaline phosphatase TNAP – biochemical, luminescent, dose response, SAR follow-up (AID 1056).

For experiment [12], the system named is INS1. Kind of experiment: INS-1E survival protection against cytokine death – cell-based, luminescence, retest, dose response (AID 449756).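 Note: cell death triggered by IL-1 beta plus TNF-alpha plus IFN-gamma mixture; protective hits raise ATP signal compared with cytokine alone wells.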 It is filed as functional. Particulars: Rattus norvegicus.
Experiment [13] in a line: Luminescence Cell-Based Dose Retest to Confirm Inhibitors of Cancer Stem Cells. [Related pubchem assays (depositor defined):AID2717, AID2721]. It counts as functional. Particulars: Homo sapiens.
The nature of experiment [14]: blockers of bursicon-stimulated LGR2 cAMP reporter – cell-based, HEK293, CRE-luciferase reporter, cherry pick, set 2, dose response (AID 743343).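 Note: transfected cells were stimulated with diluted bursicon conditioned medium after compound addition.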 It is filed as functional. For orientation: A reporter such as luciferase makes a cellular process visible.
Experiment [15] in a line: activation of miR-122 Renilla sensor silencing – cell-based, Huh7 psiCHECK-miR122, Renilla luciferase, cherry-picked, dose response (AID 651956).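 Note: huh7 hepatoma cells stably carrying a psiCHECK-2 miR-122 sensor plasmid; renilla luciferase signal reporting endogenous miR-122 activity after 48 h compound exposure.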 It is filed as functional.
Experiment [16] can be described thus: Dd2 malaria parasite growth inhibition potency – SYBR Green, dry powder samples, dose response (AID 1159566).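 Note: potency for growth inhibition with lower SYBR green DNA signal.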 It counts as functional, cell-based.
The nature of experiment [17]: toxicity to human HepG2 hepatoma cells – cell-based, plate reader, dry powder samples, cytotoxicity control, dose response (AID 1159569).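 Note: inhibitor potency with signal falling toward the positive control level.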 It is filed as functional.
Experiment [18] has as its target Paired box protein Pax-8 (Homo sapiens, UniProt Q06710). Kind of experiment: PAX8 transcriptional activity inhibition in RMG-I – RMG-I cells, luciferase, cherry-pick, dose response (AID 687027).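 Note: luciferase reporter driven by Pax8 target thyroperoxidase promoter measured by SteadyGlo luminescence.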 It is filed as functional, cell-based.
The nature of experiment [19]: P. falciparum Dd2 growth inhibitors, dose response, SYBR Green, cherry-picked samples (AID 1159567). It is filed as functional, cell-based.
Experiment [20] is described as follows: growth inhibition of PfATP4-mutant resistant parasites – NITD609-resistant line, SYBR Green, dry powder, dose response (AID 1159571).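 Note: parasites synchronized at ring stage by sorbitol before testing.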 It counts as functional, cell-based.
The nature of experiment [21]: growth inhibition of yeast DHODH-expressing 3D7 parasites – SYBR Green, dry powder samples, dose response (AID 1159570).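 Note: parasite growth measured after 72 hours of compound exposure.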 It counts as functional, cell-based.

As a reminder, the EC50 is the concentration needed to bring the measured effect to its halfway point. A word on the IC50: it is the midpoint of a concentration-inhibition curve. The term CC50 denotes the concentration that lowers cell viability or growth by half. What is called AC50 is the concentration at which the activity in the assay is half-maximal.

The structures appear in SMILES notation. Calls of active or inactive are those of the source.

Sequence of Phospholipase A2 (P04054 whole entry): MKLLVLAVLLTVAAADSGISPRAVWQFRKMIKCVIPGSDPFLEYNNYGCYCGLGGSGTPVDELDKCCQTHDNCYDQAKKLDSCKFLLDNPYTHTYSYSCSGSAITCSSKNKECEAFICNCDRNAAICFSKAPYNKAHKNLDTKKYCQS
Sequence of DNA dC->dU-editing enzyme APOBEC-3G (Q9HC16 whole entry): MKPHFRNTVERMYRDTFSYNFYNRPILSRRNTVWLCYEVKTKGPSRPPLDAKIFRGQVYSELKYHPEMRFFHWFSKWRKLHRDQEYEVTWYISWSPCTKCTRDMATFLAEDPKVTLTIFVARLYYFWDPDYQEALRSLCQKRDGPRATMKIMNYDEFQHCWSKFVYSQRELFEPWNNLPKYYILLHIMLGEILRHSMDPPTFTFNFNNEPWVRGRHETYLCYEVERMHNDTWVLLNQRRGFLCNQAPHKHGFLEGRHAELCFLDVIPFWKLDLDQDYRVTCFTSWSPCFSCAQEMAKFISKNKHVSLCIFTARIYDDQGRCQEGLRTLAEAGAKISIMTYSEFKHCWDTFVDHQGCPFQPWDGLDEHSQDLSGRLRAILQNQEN
Sequence of Paired box protein Pax-8 (Q06710 whole entry): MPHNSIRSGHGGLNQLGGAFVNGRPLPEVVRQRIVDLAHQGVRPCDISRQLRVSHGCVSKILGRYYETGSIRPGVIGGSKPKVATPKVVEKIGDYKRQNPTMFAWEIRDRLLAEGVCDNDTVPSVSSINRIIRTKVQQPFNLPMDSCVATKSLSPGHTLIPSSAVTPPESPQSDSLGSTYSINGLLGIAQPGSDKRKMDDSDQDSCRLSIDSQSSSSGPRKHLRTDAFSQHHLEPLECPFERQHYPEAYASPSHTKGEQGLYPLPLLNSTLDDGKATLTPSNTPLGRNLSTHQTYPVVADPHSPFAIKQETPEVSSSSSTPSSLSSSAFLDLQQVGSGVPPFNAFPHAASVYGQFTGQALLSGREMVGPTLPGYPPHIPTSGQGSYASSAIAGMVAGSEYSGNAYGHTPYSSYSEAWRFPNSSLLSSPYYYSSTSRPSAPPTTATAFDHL
Sequence of Glyceraldehyde-3-phosphate dehydrogenase (P04406 whole entry): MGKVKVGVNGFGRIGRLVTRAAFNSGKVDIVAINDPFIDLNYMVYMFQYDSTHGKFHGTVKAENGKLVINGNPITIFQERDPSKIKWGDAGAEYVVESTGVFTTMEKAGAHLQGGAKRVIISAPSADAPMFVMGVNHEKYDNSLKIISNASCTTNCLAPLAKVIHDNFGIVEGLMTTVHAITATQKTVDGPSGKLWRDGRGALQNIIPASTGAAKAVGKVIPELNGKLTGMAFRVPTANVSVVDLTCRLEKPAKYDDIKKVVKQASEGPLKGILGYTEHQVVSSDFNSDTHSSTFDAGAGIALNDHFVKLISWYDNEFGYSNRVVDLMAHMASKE

Take `O=C1NC(=O)N(c2ccc(Cl)cc2)C(=O)/C1=C/NCCN1CCCCC1`: the EC50 in [1] and in experiment [2] was > 300 µM (not active) throughout.
Consider `O=C(COc1ccccc1-c1ccccc1)NCc1cccc(Cl)c1`, for which the IC50 was 7.72 µM (active) in experiment [3] and 11.4 µM (active) in experiment [4].
In the case of `CCOc1ccc(NCc2ccccc2OCc2cccc(F)c2)cc1`, the EC50 is 1.29 µM (active) in [5] and > 60 µM (not active) in experiment [6]. The IC50 was 5.3 µM (active) in experiment [3] and 8.88 µM (active) in experiment [4].
Regarding `O=C1CCCC2=C1C(c1ccccc1)C1C(=O)c3ccccc3C1=N2` (configuration not stated), the CC50 in [7] is > 50 µM (active). Besides, the IC50 in experiment [8] was 39.8 µM (active).
In the case of `O=[N+]([O-])c1ccc(N2CCN(C(=S)c3cccc([N+](=O)[O-])c3)CC2)cc1`, in experiment [9], the IC50 was 47.7 µM (active).
`COc1ccc(/C=C/C(=O)NCc2nc3ccccc3[nH]2)cc1OC`: the IC50 in experiment [8] was 30.6 µM (active).
In the case of `COc1ccc(S(=O)(=O)Nc2ccc3ccccc3c2)cc1`, the IC50 in experiment [10] was > 100 µM (not active); in experiment [11] it was > 100 µM (inactive).
With `Cc1c(Cl)cccc1N=C(S)N1CCN(C(=O)C2CCCO2)CC1` (configuration not stated), the EC50 in experiment [1] and in experiment [2] was > 300 µM (not active) throughout.
On to `N#CCSc1nc2ccccc2c2nc3ccccc3n12`, for which the values for the AC50 in experiment [12] and in [13] were 8.38 µM (active) and 3.31 µM (active), respectively. Also, the CC50 in experiment [7] is 7.62 µM (active). Moreover, the IC50 in experiment [8] was 9.82 µM (active).
On to `O=C1Nc2cc(Cl)c(Cl)cc2N(O)N1c1cc(Cl)cc(Cl)c1`, for which the values for the IC50 in experiment [3] and in experiment [4] were 13.7 µM (active) and 14.5 µM (active), respectively.
As to `O=C(c1ccc(Br)o1)N1CCN=C1SCc1cccc(F)c1`, the EC50 in experiment [1] and in experiment [2] was > 300 µM (not active) each time.
For `CC(C)(C)NC(=O)c1cccc(NC(=O)c2ccc3c(c2)C(=O)N(C(C)(C)C)C3=O)c1`, the CC50 in experiment [7] is > 50 µM (active). For the same molecule, the IC50 in experiment [8] was 39.8 µM (active). Moreover, in experiment [14], the AC50 was 37.3 µM (active).
On to `COc1ccc(Cc2nnc(S)n2C)cc1Br`, for which the IC50 in experiment [9] was 18.9 µM (active).
With `C[C@H](CO)N1C[C@H](C)[C@@H](CN(C)C(=O)C2CCOCC2)Oc2cc(C#Cc3ccncc3)ccc2S1(=O)=O`, the AC50 in experiment [15] was 3.77 µM (active).
As to `CCCNC(=O)C[C@@H]1CC[C@@H]2[C@H](COc3ccc(NS(=O)(=O)c4ccccc4C)cc3C(=O)N2C)O1`, the AC50 in experiment [15] was 56 µM (active).
For `C[C@@H]1CN([C@@H](C)CO)S(=O)(=O)c2ccc(C#CC3CC3)cc2O[C@@H]1CN(C)C(=O)c1cccc(F)c1`, in experiment [15], the AC50 is 8.3 µM (active).
Take `C[C@H]1CN([C@@H](C)CO)C(=O)c2c(c3ccccc3n2C)-c2ccccc2CO[C@@H]1CN(C)Cc1ccc(-c2ccccc2)cc1`: the AC50 in experiment [16] was 1.49 µM (active); in [17], 22.2 µM (active); in experiment [18], 24.9 µM (active); in experiment [19] it was 2.75 µM (active); in [20], 1.99 µM (active); in experiment [21], 2.75 µM (active).
Turning to `N#Cc1cccc(-c2ccc3c(c2)[C@H]2[C@H](CCN2Cc2ccncc2)[C@@H](CO)N3)c1`, the AC50 in experiment [16] was 1.4 µM (active); in experiment [17], > 100 µM (inactive); in experiment [19] it was 1.99 µM (active); in experiment [20], 3.28 µM (active); in experiment [21], 1.57 µM (active).
As for `C[C@H](CO)N1C[C@H](C)[C@H](CN(C)CC2CC2)Oc2ccc(NC(=O)Nc3cccc4ccccc34)cc2CC1=O`, the AC50 in experiment [16] was 1.25 µM (active); in experiment [17] it was 48.5 µM (active); in experiment [19] it was 2.51 µM (active); in experiment [20], 2.47 µM (active); in [21], 2.51 µM (active).
With `Fc1cccc(-c2ccc([C@@H]3[C@@H]4CN(Cc5cncnc5)C[C@H]3N4)cc2)c1`, the AC50 was 1.6 µM (active) in experiment [16]; 18.8 µM (active) in experiment [17]; 1.36 µM (active) in [19]; 2.67 µM (active) in experiment [20]; 4.51 µM (active) in experiment [21].
